# Data as given in article PMC6685790 (Nature structural & molecular biology, 2008).
# Substitutions are numbered along the chain they refer to.
# Columns and labels:
# GlyR α1^F99A,E157A = target: T1, GlyR α1^F99A,E157A (Homo sapiens, UniProt P23415, E185A/F127A); test: Whole-cell recording of substituted GlyR in HEK cells; format: cell-based
# T1 sequence (P23415 29-457 F127A/E185A): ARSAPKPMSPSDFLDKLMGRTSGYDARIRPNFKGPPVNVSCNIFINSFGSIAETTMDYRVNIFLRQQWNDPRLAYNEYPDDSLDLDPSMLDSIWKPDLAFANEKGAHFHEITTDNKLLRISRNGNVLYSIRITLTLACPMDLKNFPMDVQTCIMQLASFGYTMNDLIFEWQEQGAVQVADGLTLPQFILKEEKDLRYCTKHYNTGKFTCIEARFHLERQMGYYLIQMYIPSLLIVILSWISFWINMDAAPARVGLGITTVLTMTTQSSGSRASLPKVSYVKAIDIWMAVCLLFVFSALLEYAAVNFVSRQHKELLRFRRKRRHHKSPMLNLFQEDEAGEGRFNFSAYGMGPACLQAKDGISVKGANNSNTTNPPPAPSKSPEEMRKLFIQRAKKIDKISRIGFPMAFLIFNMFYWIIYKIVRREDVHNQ
# GlyR α1^L98A = target: T2, GlyR α1^L98A (Homo sapiens, UniProt P23415, L126A); test: as above; format: cell-based; conditions: α1^L98A
# T2 sequence (P23415 29-457 L126A): T1 sequence (P23415 29-457 F127A/E185A) with L98A, A99F, A157E
# GlyR α1^T113G = GlyR α1^T113G (Homo sapiens, UniProt P23415, T141G); test: as above; format: cell-based; conditions: α1^T113G vs WT
# GlyR α1^T113G, sequence (P23415 29-457 T141G): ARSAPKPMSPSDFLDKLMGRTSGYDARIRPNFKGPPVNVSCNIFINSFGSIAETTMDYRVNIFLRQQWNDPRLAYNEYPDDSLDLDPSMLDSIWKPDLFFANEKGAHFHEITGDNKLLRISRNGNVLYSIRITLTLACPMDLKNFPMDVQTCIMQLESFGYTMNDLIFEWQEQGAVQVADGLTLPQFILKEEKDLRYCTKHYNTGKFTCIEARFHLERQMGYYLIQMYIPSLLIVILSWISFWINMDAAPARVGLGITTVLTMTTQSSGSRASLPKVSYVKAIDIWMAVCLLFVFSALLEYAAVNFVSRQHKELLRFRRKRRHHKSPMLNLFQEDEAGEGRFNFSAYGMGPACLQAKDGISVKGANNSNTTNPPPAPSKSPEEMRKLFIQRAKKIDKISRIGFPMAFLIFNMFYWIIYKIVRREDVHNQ
# GlyR α1^L134A = target: T3, GlyR α1^L134A (Homo sapiens, UniProt P23415, L162A); test: as above; format: cell-based; conditions: α1^L134A
# T3 sequence (P23415 29-457 L162A): T1 sequence (P23415 29-457 F127A/E185A) with A99F, L134A, A157E
# [1] = system: Zn^2+-activated GlyRs (ZAGs); format: cell-based, human; conditions: substituted GlyRs, n = 5; close to ECl
# GlyR α1 F108Y = GlyR α1 F108Y (Homo sapiens, UniProt P23415, F136Y); test: Whole-cell recording of substituted GlyR in HEK cells; format: cell-based; conditions: same cell
# GlyR α1 F108Y, sequence (P23415 29-457 F136Y): as the sequence (P23415 29-457 T141G) above, with F108Y, G113T counted along it
# GlyR α1^L134A, D97A = GlyR α1^L134A, D97A (Homo sapiens, UniProt P23415, D125A/L162A); test: as above; format: cell-based
# GlyR α1^L134A, D97A, sequence (P23415 29-457 D125A/L162A): as the sequence (P23415 29-457 T141G) above, with D97A, G113T, L134A counted along it
# GlyR α1 F99L = GlyR α1 F99L (Homo sapiens, UniProt P23415, F127L); test: as above; format: cell-based; conditions: same cell
# GlyR α1 F99L, sequence (P23415 29-457 F127L): as the sequence (P23415 29-457 T141G) above, with F99L, G113T counted along it
# GlyR α1^L134A, D84A = GlyR α1^L134A, D84A (Homo sapiens, UniProt P23415, D112A/L162A); test: as above; format: cell-based
# GlyR α1^L134A, D84A, sequence (P23415 29-457 D112A/L162A): as the sequence (P23415 29-457 T141G) above, with D84A, G113T, L134A counted along it
# GlyR α1^T112A = GlyR α1^T112A (Homo sapiens, UniProt P23415, T140A); format: cell-based
# GlyR α1^T112A, sequence (P23415 29-457 T140A): as the sequence (P23415 29-457 T141G) above, with T112A, G113T counted along it
# GlyR α1^L134A, D86A = GlyR α1^L134A, D86A (Homo sapiens, UniProt P23415, D114A/L162A); test: Whole-cell recording of substituted GlyR in HEK cells; format: cell-based
# GlyR α1^L134A, D86A, sequence (P23415 29-457 D114A/L162A): as the sequence (P23415 29-457 T141G) above, with D86A, G113T, L134A counted along it
# [2] = read-out: Zn^2+ Activation EC50, direct activation without glycine
# [3] = read-out: Zn^2+ Inhibition IC50, modulation of EC50 glycine currents
# [4] = maximal Zn^2+ response as percentage of maximal glycine response in same cell
compound,measurement,setting,value
"NCC(=O)O [Glycine, glycine]",Activation by glycine,"GlyR α1^F99A,E157A; α1^F99A,E157A, up to 10 mM glycine",insensitive
same,Glycine Imax,GlyR α1^L98A,6.4 ± 0.5 nA
same,Glycine nH,GlyR α1^L98A; Hill slope,1.9 ± 0.3
same,Increase in glycine sensitivity compared to WT,GlyR α1^T113G,3 fold
same,Glycine Imax,GlyR α1^L134A,6.0 ± 0.3 nA
same,Glycine nH,GlyR α1^L134A; Hill slope,3.0 ± 0.4
[Zn+2] [Zn^2+],Decrease in sensitivity to Zn^2+ activation,"GlyR α1^F99A,E157A; E157A on α1^F99A background vs α1^F99A",3 fold
same,Zn^2+ sensitivity compared with α1^F99A,"GlyR α1^F99A,E157A; α1^F99A,E157A, Zn^2+ activation",identical
same,Reversal potential of Zn^2+-activated currents,[1],0.4 ± 1.4 mV
same,EC50,GlyR α1^L98A; [2],0.26 ± 0.08 µM
same,IC50,GlyR α1^L98A; [3],> 1000 µM
same,Zn^2+ Activation nH,GlyR α1^L98A; Hill slope,1.1 ± 0.2
same,Zn^2+ Activation Relative efficacy (% Gly Imax),GlyR α1^L98A; [4],49 ± 5 % Gly Imax
same,Maximal Zn^2+ (1 mM)-activated current normalised to glycine Imax (10 mM),GlyR α1 F108Y,< 2 % Gly Imax
same,EC50,GlyR α1^L134A; [2],0.06 ± 0.01 µM
same,IC50,GlyR α1^L134A; [3],> 1000 µM
same,Zn^2+ Activation nH,GlyR α1^L134A; Hill slope,1.3 ± 0.1
same,Zn^2+ Activation Relative efficacy (% Gly Imax),GlyR α1^L134A; [4],38 ± 9 % Gly Imax
same,Zn^2+ activation,"GlyR α1^L134A, D97A",no detectable activation
same,Maximal Zn^2+ (1 mM)-activated current normalised to glycine Imax (10 mM),GlyR α1 F99L,< 2 % Gly Imax
same,Zn^2+ activation (normalised to Gly Imax),"GlyR α1^L134A, D84A; D84A",5 ± 1%
same,Increase of Zn^2+ activation EC50 relative to α1^L134A,"GlyR α1^L134A, D84A; D84A vs α1^L134A",120 fold
same,Zn^2+ activation,GlyR α1^T112A,highly-sensitive and efficacious ZAG
same,Zn^2+ activation (normalised to Gly Imax),"GlyR α1^L134A, D86A; D86A",2.4 ± 1.2%
same,Increase of Zn^2+ activation EC50 relative to α1^L134A,"GlyR α1^L134A, D86A; D86A vs α1^L134A",15 fold
